Experimental data reported in paper PMC10218234, “Design, Synthesis and Antitumor Activity of 1H-indazole-3-amine Derivatives” (International Journal of Molecular Sciences, 2023).
Read-outs that look alike come from different tables or passages of the source.

Key:
K562 cells = experiment: MTT anti-proliferative assay, K562; assay type: cell-based; settings: Homo sapiens, read-out: IC50 ± SD, K562
Procedure: (§1) The antiproliferative activity of the target indazole derivatives was evaluated against a panel of human cancer cell lines (human chronic myeloid leukemia cell lines K562; human lung cancer cell lines A549; human prostate cancer cell lines PC-3; human hepatoma cell lines HepG-2) in vitro, and human embryonic kidney cell lines HEK-293 were used to evaluate the cytotoxicity of a normal cell with high activity derivatives by MTT assay. Moreover, 5-fluorouracil (5-Fu), a broad-spectrum drug antitumor drug with therapeutic effects on various cancers, was used as a positive control.
(§2) Lung (A549), chronic myeloid leukemia (K562), prostate (PC3), and live (Hep-G2) cells were purchased from the Cell Bank of the Chinese Academy of Sciences (Kunming, China). A549, K562, and PC-3 cells were cultured in RPMI-1640 medium and the liver cells Hep-G2 were cultured in MEM medium. All mediums were supplemented with 10% FBS, 100 μg/mL penicillin and 100 μg/mL streptomycin. All cells were cultivated in a 5% CO2 incubator at 37 °C.
(§3) To investigate the anticancer activity of indazole derivatives, A549, K562, PC3, and Hep-G2 cells were treated with targets compounds respectively for 48 h in a range of concentrations (from 0.625 to 10 μM) and subjected to a proliferation assay using the MTT assay. Exponentially growing cells were seeded at a density of 5000 cells per well in 96-well plates containing 100 μL of fresh growth medium. After allowing the cells to attach for 24 h, target compounds were added. After incubation for 48 h, viable cells were stained with MTT (0.5 mg/mL) for 4 h, and the produced formazan crystals were dissolved with 150 µL of dimethyl sulfoxide. Absorbance was measured at 490 nm using an automated microplate reader (Tecan, Infinite M200 Pro, Männedorf, Switzerland). The relative cell viability was calculated according to the following equation: Cell viability%=experimental OD value/control OD value×100%Cell inhibition%=control OD value−experimental OD value/control OD value×100%
(§4) Cell inhibition%=control OD value−experimental OD value/control OD value×100%

A549 cells = experiment: MTT anti-proliferative assay, A549; assay type: cell-based; settings: Homo sapiens, read-out: IC50 ± SD, A549
Procedure: as §1, §2, §3, §4

PC-3 cells = experiment: MTT anti-proliferative assay, PC-3; assay type: cell-based; settings: Homo sapiens, PC-3, 48 h
Procedure: as §1, §2
as §3, with “Exponentially” for “To investigate the anticancer activity of indazole derivatives, A549, K562, PC3, and Hep-G2 cells were treated with targets compounds respectively for 48 h in a range of concentrations (from 0.625 to 10 μM) and subjected to a proliferation assay using the MTT assay. Exponentially”
as §4

Hep-G2 cells = experiment: MTT anti-proliferative assay, Hep-G2; assay type: cell-based; settings: Homo sapiens, HepG2, 48 h, read-out: IC50 ± SD, Hep-G2
Procedure: as §1, §2, §3, §4

[1] = Table 1, read-out: IC50 ± SD, PC-3
[2] = Table 2, read-out: IC50 ± SD, PC-3

SMILES | IC50 (K562 cells; Table 1, 48 h) | IC50 (A549 cells; Table 1, 48 h) | IC50 (PC-3 cells; [1]) | IC50 (Hep-G2 cells; Table 1, 48 h) | melting point | IC50 (K562 cells; Table 2, 48 h) | IC50 (A549 cells; Table 2, 48 h) | IC50 (PC-3 cells; [2]) | IC50 (Hep-G2 cells; Table 2, 48 h)
O=C(CSc1ccc(F)cc1)Nc1n[nH]c2ccc(-c3cccc(F)c3)cc12 [5b] | 6.97 ± 0.99 µM | 5.25 ± 0.57 µM | 38.4 ± 24.1 µM | > 50 µM | – | – | – | – | –
O=C(CSc1ccc(Br)cc1)Nc1n[nH]c2ccc(-c3cccc(F)c3)cc12 [5c] | 9.33 ± 0.64 µM | 5.63 ± 0.59 µM | 60.7 ± 2.91 µM | 4.76 ± 0.63 µM | – | – | – | – | –
O=C(CSc1ccccc1Br)Nc1n[nH]c2ccc(-c3cccc(F)c3)cc12 [5d] | 27.2 ± 0.66 µM | 16.6 ± 3.22 µM | 19.7 ± 2.38 µM | 45.9 ± 2.24 µM | – | – | – | – | –
COc1ccc(SCC(=O)Nc2n[nH]c3ccc(-c4ccc(F)cc4)cc23)cc1 [5e] | > 50 µM | 7.23 ± 0.4 µM | 12.8 ± 3.09 µM | 8.2 ± 0.91 µM | – | – | – | – | –
COc1ccc(SCC(=O)Nc2n[nH]c3ccc(-c4ccc(OC(F)(F)F)cc4)cc23)cc1 [5f] | > 50 µM | 4.48 ± 0.24 µM | 12.5 ± 4.55 µM | > 50 µM | 215 to 216 °C | – | – | – | –
O=C(CSc1ccc(F)cc1)Nc1n[nH]c2ccc(-c3ccc(Cl)c(F)c3)cc12 [5g] | 10.3 ± 1.14 µM | 6.4 ± 0.26 µM | 18.6 ± 5.73 µM | 11.9 ± 0.72 µM | 178 to 200 °C | – | – | – | –
O=C(CSc1ccc(Br)cc1)Nc1n[nH]c2ccc(-c3ccc(Cl)c(F)c3)cc12 [5h] | 14.3 ± 2.13 µM | 9.26 ± 0.37 µM | 13 ± 7.53 µM | 11.3 ± 0.75 µM | 267 to 268 °C | – | – | – | –
O=C(CSc1ccc([N+](=O)[O-])cc1)Nc1n[nH]c2ccc(-c3ccc(Cl)c(F)c3)cc12 [5i] | 6.27 ± 1.22 µM | 4.43 ± 0.15 µM | 6.57 ± 1.1 µM | 5.5 ± 0.17 µM | 243 to 246 °C | – | – | – | –
COc1ccc(SCC(=O)Nc2n[nH]c3ccc(-c4cc(F)cc(F)c4)cc23)cc1 [5j] | 8.49 ± 1.87 µM | 3.99 ± 0.16 µM | 14.7 ± 4.55 µM | 5.36 ± 0.25 µM | 204 to 205 °C | – | – | – | –
O=C(CSc1ccccc1Br)Nc1n[nH]c2ccc(-c3cc(F)cc(F)c3)cc12 [5l] | 8.19 ± 1.43 µM | 14.1 ± 1.71 µM | > 50 µM | 14.9 ± 0.77 µM | 199 to 200 °C | – | – | – | –
O=C(CSc1ccc(Cl)cc1)Nc1n[nH]c2ccc(-c3cc(F)cc(F)c3)cc12 [5m] | 13.1 ± 0.46 µM | 20.2 ± 3.14 µM | > 50 µM | 35.6 ± 4.21 µM | 200 to 202 °C | – | – | – | –
O=C(CSc1cccc(Cl)c1)Nc1n[nH]c2ccc(-c3cc(F)cc(F)c3)cc12 [5n] | 7.25 ± 1.07 µM | 20 ± 1.19 µM | > 50 µM | 6.57 ± 0.13 µM | 193 to 194 °C | – | – | – | –
O=C(CSc1ccc([N+](=O)[O-])cc1)Nc1n[nH]c2ccc(-c3cc(F)cc(F)c3)cc12 [5o] | 8.09 ± 1.27 µM | 6.64 ± 0.47 µM | 12.5 ± 2.1 µM | 8.3 ± 0.56 µM | – | – | – | – | –
O=C(CSc1ccncc1)Nc1n[nH]c2ccc(-c3cc(F)cc(F)c3)cc12 [5p] | 15.42 ± 0.15 µM | 16 ± 0.37 µM | 22.5 ± 9.13 µM | 7.14 ± 0.33 µM | – | – | – | – | –
O=C(CSc1ncccn1)Nc1n[nH]c2ccc(-c3cc(F)cc(F)c3)cc12 [5q] | 14.3 ± 2.13 µM | 16.2 ± 1.46 µM | 7.81 ± 0.64 µM | 6.3 ± 0.03 µM | – | – | – | – | –
COc1ccc(-c2ccc3[nH]nc(NC(=O)CN4CCN(c5ccc(Cl)c(Cl)c5)CC4)c3c2)cc1 [6b] | – | – | – | – | 200 to 201 °C | 18.6 ± 2.14 µM | 19.9 ± 1.15 µM | 9.69 ± 0.26 µM | 1.69 ± 0.68 µM
COc1ccc(-c2ccc3[nH]nc(NC(=O)CN4CCN(c5ccc(OC)cc5)CC4)c3c2)cc1 [6c] | – | – | – | – | 188 to 189 °C | > 50 µM | 24 ± 2.92 µM | > 50 µM | 1.23 ± 0.39 µM
COc1ccc(-c2ccc3[nH]nc(NC(=O)CN4CCN(c5ccc(C(F)(F)F)cc5)CC4)c3c2)cc1 [6d] | – | – | – | – | 187 to 189 °C | 18.2 ± 2.91 µM | 17.6 ± 4.11 µM | 17.6 ± 1.4 µM | > 50 µM
COc1ccc(-c2ccc3[nH]nc(NC(=O)CN4CCN(Cc5ccc(Cl)cc5)CC4)c3c2)cc1 [6e] | – | – | – | – | 140 to 141 °C | 8.85 ± 0.26 µM | 12.8 ± 0.78 µM | 7.15 ± 0.14 µM | > 50 µM
O=C(CN1CCN(c2ccc(Cl)c(Cl)c2)CC1)Nc1n[nH]c2ccc(-c3cc(F)cc(F)c3)cc12 [6f] | – | – | – | – | – | 11.9 ± 0.85 µM | > 50 µM | 41.7 ± 27.9 µM | 9.56 ± 0.84 µM
O=C(CN1CCN(c2ccc(C(F)(F)F)cc2)CC1)Nc1n[nH]c2ccc(-c3cc(F)cc(F)c3)cc12 [6g] | – | – | – | – | 170 to 171 °C | 6.61 ± 0.38 µM | 15.8 ± 2.98 µM | 6.81 ± 1.09 µM | 2.35 ± 0.96 µM
O=C(CN1CCN(c2ccc(F)cc2F)CC1)Nc1n[nH]c2ccc(-c3cc(F)cc(F)c3)cc12 [6h] | – | – | – | – | – | 13.2 ± 1.75 µM | 15.1 ± 1.36 µM | 8.63 ± 0.57 µM | 2.75 ± 0.78 µM
O=C(CN1CCN(c2ccc(Br)cc2)CC1)Nc1n[nH]c2ccc(-c3cc(F)cc(F)c3)cc12 [6i] | – | – | – | – | 184 to 186 °C | 13.2 ± 1.44 µM | 28.6 ± 2.52 µM | 12.8 ± 2.95 µM | 2.58 ± 0.42 µM
O=C(CN1CCN(c2ccc(Cl)cc2)CC1)Nc1n[nH]c2ccc(-c3cc(F)cc(F)c3)cc12 [6j] | – | – | – | – | 179 to 181 °C | 7.78 ± 0.1 µM | 20.3 ± 1.24 µM | 7.58 ± 1.01 µM | 3.87 ± 0.47 µM
O=C(CN1CCN(c2ccc(Cl)c(Cl)c2)CC1)Nc1n[nH]c2ccc(-c3ccc(Cl)c(F)c3)cc12 [6m] | – | – | – | – | – | 17.9 ± 3.14 µM | 22.6 ± 6.53 µM | 19.9 ± 2.71 µM | 1.51 ± 0.25 µM
O=C(CN1CCN(c2ccc(Br)cc2)CC1)Nc1n[nH]c2ccc(-c3ccc(Cl)c(Cl)c3)cc12 [6r] | – | – | – | – | – | 10 ± 0.94 µM | 15.8 ± 1.38 µM | 27.9 ± 26.1 µM | > 50 µM
COc1ccc(SCC(=O)Nc2n[nH]c3ccc(-c4cccc(F)c4)cc23)cc1 [compound 5a] | 9.32 ± 0.59 µM | 4.66 ± 0.45 µM | 15.5 ± 1.33 µM | 12.7 ± 1.31 µM | – | – | – | – | –
O=C(CN1CCN(c2ccc(Cl)c(Cl)c2)CC1)Nc1n[nH]c2ccc(-c3cccc(F)c3)cc12 [compound 6a] | – | – | – | – | – | 5.19 ± 0.29 µM | 8.21 ± 0.56 µM | 6.12 ± 0.1 µM | 5.62 ± 1.76 µM
